Literature values in patent publication US20030171329A1, “Stable compositions comprising tezacitabine” (priority 2002, published 2003).
Read-outs that look alike come from different tables or passages of the source.

Experiments:
[1] = cited from earlier work
[2] = tested on: replicating strand of DNA; settings: incorporated directly into the replicating strand of DNA; cited from earlier work
ribonucleotide reductase = biological target: T1, ribonucleotide reductase (Homo sapiens, UniProt P23921); settings: cited from earlier work
T1 sequence (P23921 1-792): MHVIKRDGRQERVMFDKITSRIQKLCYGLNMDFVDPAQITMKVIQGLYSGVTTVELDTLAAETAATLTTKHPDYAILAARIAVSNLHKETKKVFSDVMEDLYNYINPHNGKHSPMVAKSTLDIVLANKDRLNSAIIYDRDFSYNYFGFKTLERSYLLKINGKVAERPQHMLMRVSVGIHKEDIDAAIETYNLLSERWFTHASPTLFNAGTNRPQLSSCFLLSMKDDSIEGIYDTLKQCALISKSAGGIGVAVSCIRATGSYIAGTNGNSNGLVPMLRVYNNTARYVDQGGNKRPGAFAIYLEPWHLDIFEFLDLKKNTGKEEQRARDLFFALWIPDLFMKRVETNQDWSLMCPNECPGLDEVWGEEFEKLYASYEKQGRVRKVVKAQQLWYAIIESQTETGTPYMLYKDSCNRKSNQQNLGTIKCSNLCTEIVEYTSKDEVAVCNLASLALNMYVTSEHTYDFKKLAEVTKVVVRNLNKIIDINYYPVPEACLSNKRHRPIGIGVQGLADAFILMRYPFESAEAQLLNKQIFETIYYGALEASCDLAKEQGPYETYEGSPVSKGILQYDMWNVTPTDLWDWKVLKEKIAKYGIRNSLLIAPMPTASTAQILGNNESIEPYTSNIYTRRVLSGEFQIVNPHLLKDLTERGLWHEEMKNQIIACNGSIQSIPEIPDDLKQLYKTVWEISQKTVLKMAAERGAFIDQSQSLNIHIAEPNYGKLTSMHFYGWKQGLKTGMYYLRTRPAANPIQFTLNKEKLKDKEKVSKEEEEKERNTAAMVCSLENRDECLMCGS
T1 sequence (P31350 1-389 partner): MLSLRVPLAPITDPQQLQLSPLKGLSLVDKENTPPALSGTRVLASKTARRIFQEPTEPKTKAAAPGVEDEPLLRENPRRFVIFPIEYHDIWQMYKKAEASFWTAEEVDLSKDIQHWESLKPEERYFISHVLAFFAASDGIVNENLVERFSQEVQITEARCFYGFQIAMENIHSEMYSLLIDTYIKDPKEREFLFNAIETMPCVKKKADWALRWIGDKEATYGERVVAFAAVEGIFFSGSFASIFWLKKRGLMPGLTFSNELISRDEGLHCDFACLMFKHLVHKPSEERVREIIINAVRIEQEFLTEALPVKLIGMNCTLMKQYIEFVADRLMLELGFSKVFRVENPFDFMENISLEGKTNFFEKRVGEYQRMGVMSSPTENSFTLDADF

Nc1ccn([C@@H]2O[C@H](CO)[C@@H](O)C2(F)F)c(=O)n1 [Gemcitabine]
stability in words ([1]; acid conditions (low pH)): relatively stable | stability in words ([1]; high pH): considerably less stable

Nc1ccn(C2OC(COP(=O)(O)OP(=O)(O)OP(=O)(O)O)C(O)C2=CF)c(=O)n1 (centres unmarked) [tezacitabine triphosphate]
effect on DNA synthesis [2]: causes premature chain termination

Nc1ccn(C2OC(COP(=O)(O)OP(=O)(O)O)C(O)C2=CF)c(=O)n1 (centres unmarked) [tezacitabine diphosphate]
effect on ribonucleotide reductase (ribonucleotide reductase): inhibits ribonucleotide reductase

Nc1ccn([C@@H]2O[C@H](CO)[C@@H](O)[C@@H]2O)c(=O)n1 [Cytarabine]
pH of best stability ([1]; aqueous solution): most stable at neutral pH (7-8)
